How the values were obtained:
[1] = test system: seedling blight of rice plant (pathogen Fusarium sp. and Rhizoctonia sp.); assay: Exterminating test on seedling blight of rice plant (Experimental Example 1); type: in vivo; settings: soil, 408 h, 0.25g/box a.i., 5% dust mixed with soil; read-out: Percentage of healthy seedlings
Description: Exterminating test on seedling blight of rice plant Nursery boxes (60 × 30 × 3 cm) were filled with soil which were contaminated with pathogen (Fusarium sp. and Rhizoctonia sp.) The dust in which the present compound was contained in a ratio of 5% by weight was added in the box in a ratio of 5 grams per box and mixed well with soil. Thereafter, seeds of rice plant (variety: Nihonbare) were sowed in drills at a rate of 0.3 liter per box and grown up in a lighting chamber at 17° C. After 7 days from the sowing, the boxes were carried out in the field. Furthermore, 10 days thereafter the observations were made. Four percent (4%) dust of 3-hydroxy-5-methyl isoxazol (hereinafter referred to as hydroxyisoxazol) on the market was used as a control and tested by the same method. The test results are shown in Table 2 with a "percentage of healthy seedlings". The percentage of healthy seedlings was calculated as follows: […]

[2] = test system: Fusarium wilt of cucumber; assay: Exterminating test on Fusarium wilt of cucumber (Experimental Example 4); type: in vivo, Fusarium oxysporum f, cucumerinum; settings: Fusarium, soil, 336 h, 500 ppm, soil drench 100 ml per pot, two weeks; read-out: Percentage of healthy seedlings
Description: Exterminating test on Fusarium wilt of cucumber Twenty (20) grams of infected soil was added uniformly into each pot which was filled with steam sterilized field soil, then 18 seeds of cucumber (variety; Tokiwazibai) were sowed in each pot. Eighty percent (80%) wettable powder of the present invention was diluted with water to obtain a suspension, and each pot was drenched with the suspension in an amount of 100 ml. Fifty percent (50%) wettable powder of methyl-1-(butylcarbamoyl) 2-benzimidazol carbamate (hereinafter referred to as Benlate) on the market was used as a control and tested by the same method. After two weeks of planting, degrees attacked by the pathogen was observed and a "percentage of healthy seedlings" was calculated as follows: [formula]

[3] = test system: Aspergillus niger, Penicillium citrinum, Cladosporium harbarum and chaetomium globosum; assay: Degree of growth inhibition of fungi on treated beach plates (Example 25); type: cell-based; parameters: scale not given here; settings: numerical rating, 2 weeks
Description: The emulsifiable concentrates which were prepared by Example 20 were diluted with water 400 times and 800 times to form emulsions.
The square plates of beach of which a side was 5 cm long and thickness was 5 mm were dipped into the emulsion for 2 minutes and dried for 24 hours at room temperature.
The square plates were placed on the surface of agar plates. The suspensions which contained spores of Aspergillus niger, Penicillium citrinum, Cladosporium harbarum and chaetomium globosum were respectively sprayed on the agar plates and the square plates.
The test fungi were cultivated in the incubator at the humidity of 95% and the temperature of 28° C for 2 weeks. The degree of growth inhibition is defined in terms of the following numerical ratings.

Aspergillus niger = assay: Region of growth-inhibition around treated cotton cloth (Example 26); type: cell-based; settings: emulsifiable concentrate diluted 100 times
Description: (§1) The emulsifiable concentrates which were prepared by Example 20 were diluted with water 100 times to form an emulsion. A cloth of cotton was soaked into each emulsion for 2 minutes. The clothes were dried at room temperature and cut into a square of which a side was 1 cm long. Each kind of test bacteria and fungi was inoculated, separately, on plates of potato-agar and one square cloth placed on each of such plates. Test bacteria and fungi were cultivated at 28° C for 4 days. The width of the region of growth-inhibition which was formed a circumference of the cloth was measured.

Bacillus subtilis = assay: as above; type: cell-based; settings: emulsifiable concentrate diluted 100 times
Description: as §1

Penicillium Citrinum = assay: as above; type: cell-based; settings: emulsifiable concentrate diluted 100 times
Description: as §1

Staphylococcus oureus = assay: as above; type: cell-based; settings: emulsifiable concentrate diluted 100 times
Description: as §1

[4] = test system: bacteria gathered from circular water system; assay: Degree of propagation on slime test boards (Example 27); type: cell-based; settings: shaking culture for 2 days
Description: (§2) Zero point zero two (0.02) part of active compounds in the form of 10% water soluble concentrate which was prepared by Example 23 was added into 100 parts of Waxman's liquid medium. Peices of Wood iron (hereafter referred to as the slime test boards) were soaked into the Waxman's liquid medium. The bacteria which were gathered from circular water system were inoculated upon the Waxman's liquid medium and incubated at 27°-34° C by shaking culture for 2 days. The degree of propagation of the bacteria on the slime test boards was examined.
(§3) Thegrowth-inhibiting activity of active compounds against the fungi and the green algae was also examined by the same method as mentioned above.
(§4) The degree of propagation of the bacteria, fungi or green algae on the test boards is defined in terms of the following symbols.

fungi = assay: as above; type: cell-based; settings: same method, shaking culture for 2 days
Description: as §2, §3, §4

green algae = assay: as above; type: cell-based; settings: same method, shaking culture for 2 days
Description: as §2, §3, §4

[5] = test system: Cladosporium cucumerinum (cucumber scab); assay: Exterminating test on cucumber scab (Experimental Example 2); type: in vivo; parameters: scale not given here; settings: 500 ppm, 5 days after inoculation
Description: Exterminating test on cucumber scab
(§5) The cucumber seeds (variety: Sagamihanjiro) were sown in pots (diameter 18 cm). Eighty percent (80%) wettable powder (contents of active compound: 80%) of the present invention was diluted with water to obtain a suspension. The suspension was sprayed over the cucumber seedlings of the stage of 3-4 leaves in an amount of 20 ml per pot. After 24 hours, these pots were inoculated by means of spray of spore suspension of Cladosporium cucumerinum. The thus-inoculated seedlings were placed in a moist chamber at 20° C for 24 hours. The pots were continuously kept in a greenhouse at 20° C. The following wettable powders on the market were used as controls.
70% wettable powder of 1,2-bis (3-methoxy carbonyl-2-thioureid) benzene (hereinafter referred to as "thiophanate methyl") on the market.
75% wettable powder of ethylene bis (dithiocarbamic acid) manganese (hereinafter referred to as "maneb") on the market. After 5 days of the inoculation, degrees attached by the pathogen were observed and the results were shown in Table 3 with an "Infected Index". The "Infected Index" was calculated as follows: [formula] A : Number of leaves which were killed by hard attack B : Number of leaves severely attacked
C : number of leaves slightly attacked
D : number of healthy leaves

[6] = test system: cucumber seedlings (variety: Sagamihanjiro); assay: Phytotoxicity on cucumber seedlings (Experimental Example 2); type: in vivo; settings: 500 ppm
Description: as §5

[7] = test system: Rhizoctonia solani (damping-off of cucumber); assay: Exterminating test on damping-off of cucumber (Experimental Example 3); type: in vivo; settings: Rhizoctonia solani, soil, 240 h, 1,000 ppm, soil drench 50 ml per pot, 10 days; read-out: Percentage of healthy seedlings
Description: Exterminating test on damping-off of cucumber
The pots (diameter, 12 cm) were filled with field soil and then soil infected by adding Rhizoctonia solani in an amount of 5 grams per pot uniformly into the pots. Thereafter, 10 seeds of cucumber (variety: Azumamidori) were sown in each pot.
Eighty percent (80%) wettable powder of the present invention was diluted with water to obtain a suspension and each pot was drenched with the suspension in an amount of 50 milliliters. Then, the pots were transferred to the greenhouse. Fifty percent (50%) wettable powder of pentachloronitro benzene (hereinafter referred to as PCNB) on the market was used as a control and tested by the same method. After 10 days of the inoculation, degrees attacked by the pathogen were observed and a "Percentage of healthy seedlings" was calculated. The "Percentage of healthy seedlings" was calculated as follows: [formula]

[8] = test system: botrytis cinerea (gray mold); assay: Exterminating test on gray mold of tomato (Experimental Example 5); type: in vivo; parameters: scale not given here; settings: 1,000 ppm, 48 hours after inoculation, kidney bean leaves
Description: Exterminating test on gray mold of tomato The seedlings of kidney beans (variety: Orient) of 5-6 leaves stage were employed in this test. Eighty percent (80%) wettable powder of the present invention was diluted with water and sprayed over the seedlings in an amount of 10 ml per pot. The leaves were cut from the plant at 24 hours after spraying, and placed in the petri dishes (12 cm in diameter). Thereafter disks (5 mm in diameter) were cut with a cork borer from potato dextrose agar on which the pathogen (botrytis cinerea) was cultured. The disks were placed on the leaves. The dishes were placed in such a moistural condition as to cause the pathogen to propagate. Thiophanate methyl 70% wettable powder on the market was used as a control and tested by the same method. After forty eight (48) hours after inoculation, diameters of the lesions were observed, and an "Effect Index" was calculated as follows; [formula]

[9] = test system: seedlings of kidney beans (variety: Orient); assay: Phytotoxicity on kidney beans (Experimental Example 5); type: in vivo; settings: 1,000 ppm
[10] = test system: Xanthomonas citri (citrus canker); assay: Exterminating test on citrus canker (Experimental Example 6); type: in vivo; settings: Xanthomonas citri, 336 h, read-out: Effect Index, 1,000 ppm, 2 weeks after inoculation
Description: (§6) Exterminating test on citrus canker. 4-year-old summer orange seedlings, planted in unglazed pots having a diameter of 20 cm, were employed in this test. Eighty percent (80%) wettable powder of the present invention was diluted with water, and sprayed over the seedlings in an amount of 50 ml per pot. The leaves of the seedlings were inoculated Xanthomonas citri by means of a needle. After the inoculation, the seedlings were maintained in a moist chamber at 25° C for 24 hours. Then the pots were transferred into the greenhouse. Streptomycin 20% wettable powder was used as a control, and tested by the same method. After 2 weeks after the inoculation, degrees of disease attack were observed, and an "Effect Index" was calculated as follows: [formula]

summer orange seedlings = assay: Phytotoxicity on summer orange seedlings (Experimental Example 6); type: in vivo; settings: 1,000 ppm
Description: as §6

| SMILES | Percentage of healthy seedlings at 0.25 g/box [1] [%] | pest or weed control at 500 ppm [2] [%] | Degree of growth inhibition ([3]; 0.0125 %) | Degree of growth inhibition ([3]; 0.025 %) | width of the region of growth-inhibition (Aspergillus niger) [mm] | width of the region of growth-inhibition (Bacillus subtilis) [mm] | width of the region of growth-inhibition (Penicillium Citrinum) [mm] | width of the region of growth-inhibition (Staphylococcus oureus) [mm] | Degree of propagation [4] | Degree of propagation (fungi) | Degree of propagation (green algae) | Infected Index [5] | Phytotoxicity [6] | pest or weed control at 1000 ppm [7] [%] | Effect Index [8] | Phytotoxicity [9] | pest or weed control at 1000 ppm [10] [%] | Phytotoxicity (summer orange seedlings) |
| --- | --- | --- | --- | --- | --- | --- | --- | --- | --- | --- | --- | --- | --- | --- | --- | --- | --- | --- |
| CC(=O)Oc1ccc(Cl)cc1C(=O)NC=C(Cl)Cl [Compound No. 7, O-acetyl-N-(2',2'-dichlorovinyl)-5-chlorosalicylamide] | 70.2 | 76.5 | 5 | 5 | 10 | 12 | 10 | 11 | - | - | - |  |  |  |  |  |  |  |
| CC(C)C(=O)Oc1ccccc1C(=O)NC=C(Cl)Cl [compound 11] | 68.7 | 65.5 |  |  |  |  |  |  |  |  |  | 10.1 | Nil | 100 | 81 | Nil |  |  |
| CCC(=O)Oc1ccccc1C(=O)NC=C(Cl)Cl [Compound No. 9] | 69.8 | 75 | 3 | 3 | 6 | 9 | 6 | 7 | - | - | - |  |  | 90 |  |  |  |  |
| CCCC(=O)Oc1ccccc1C(=O)NC=C(Cl)Cl [compound 10] | 72.1 | 70 | 3 | 3 |  |  |  |  | + (the area of propagation is 1-25% on the slime test boards.) | - | - |  |  | 100 | 88 | Nil |  |  |
| O=C(CCl)Oc1ccccc1C(=O)NC=C(Cl)Cl [compound 13] | 62 | 70.5 | 2 | 3 | 6 | 7 | 7 | 6 | - | - | - |  |  | 100 |  |  | 67.3 | Nil |
| CCOC(=O)Oc1ccccc1C(=O)NC=C(Cl)Cl [compound 17] | 68.3 | 47.5 | 2 | 3 | 5 | 8 | 6 | 7 | - |  | + (the area of propagation is 1-25% on the slime test boards.) |  |  | 85 |  |  | 68.3 | Nil |
| O=C(NC=C(Cl)Cl)c1cc(Cl)ccc1O [Compound No. 2, N-(2',2'-dichlorovinyl)-5-chlorosalicylamide] | 72.4 |  | 2 | 3 | 5 | 9 | 5 | 10 | - | - | - | 11.0 | Nil |  | 79 | Nil |  | Nil |
